From US7833795B2, “Assessment of cardiovascular risk using isoprostane biomarkers and COX-2 selective inhibitors” (The Trustees of the University of Pennsylvania, priority 2004, dated 2010)

Experiments:
Assay type in all cases: in vivo, rat
Male Fisher 344 rats [1] = assay: Plasma free plus esterified 8-iso-PGF2α by GC/MS; conditions: for Free plus esterified 8-iso-PGF2a (by GC-MS): plasma
Experimental: (§1) Animals and treatment protocol: Male Fisher 344 rats (260-280 g) obtained from Charles River Laboratories (Raleigh, N.C.) were used in all experiments. The animals were housed three to a cage. Autoclaved hardwood bedding was used in solid-bottom polycarbonate cages with filter tops. Animal rooms were maintained at 20-25° C. with 35-70% relative humidity with alternating 12-hour light and dark cycles. The rats had free access to deionized, reverse-osmosis-treated water and received autoclaved NIH 31 rodent chow (Zeigler Bros., Gardners, Pa.) ad libitum. For all experiments, rats were fasted overnight and then administered intraperitoneal injections of carbon tetrachloride in canola oil. Control rats received an equal volume of canola oil. Fasting continued throughout the experiment. Rats were anesthetized with Nembutal (0.1 ml/100 g body weight) and 5 ml blood was removed from the dorsal aorta proximal to its bifurcation into the common iliac arteries.
(§2) Indomethacin pretreatment: The indomethacin regimen used has been previously shown to inhibit COX activity in rats by 90% (dose of 5 mg/kg s.c. 24 hours, 12 hours, and 2 hours prior to the injection of CCl4) (Jackson, 1989, J. Pharmacol. Exp. Ther. 250: 9-21). An additional booster dose was injected 8 hours after the last injection of CCl4 for the measurements performed 16 hours after treatment with CCl4.
(§3) Meclofenamic acid pretreatment: Meclofenamic acid was injected at a dose of 5 mg/kg i.p. 12 h and 2 h prior to the injection of CCl4.
(§4) Carbon tetrachloride (CCL4) treatment: Animals from each of the three dose groups (Control-canola oil, 120 mg/kg CCl4 i.p. and 1200 mg/kg CCl4 i.p.) were investigated at three time points (2, 7, and 16 hours after CCl4 injection). Indomethacin-pretreated rats were also investigated at the same three time points, and the meclofenamic acid-pretreated rats were investigated at one time point (7 hours). Each group consisted of five rats for each analysis, except the meclofenamic acid pretreatment group which consisted of six rats. Animal treatment, sample preparation, assessment of liver histology and serum enzyme activities are described elsewhere (Kadiiska et al., 2000, Free Radic. Biol. Med. 28: 838-845; Jackson, 1989, J. Pharmacol. Exp. Ther. 250: 9-21) and were carried out at NIEHS, Research Triangle Park, N.C.
(§5) Plasma sample preparation: Blood (5 ml) was drawn through single draw Vacutainer® needles (21 Gauge) into open Vacutainer® blood collection tubes containing heparin. The tubes were gently inverted 2-3 times for mixing and immediately placed on ice. Blood was centrifuged (2,000 rpm for 10 minutes at 4° C.) no more than 30 minutes after collection, and the plasma was collected, frozen on dry ice and stored at −70° C.
Measurement of the sum of free plus esterified 8-iso-PGF2α in plasma were performed using an improved GC/MS-based analysis for the quantitation of this isoprostane in plasma. A detailed protocol for this extraction and quantitation has been published (Parker et al., 2001, Mol. Biotechnol. 18: 105-118). Measurements of the sum of free plus esterified 8-iso-PGF2α in plasma were performed at NIEHS, Research Triangle Park, N.C.

Male Fisher 344 rats [2] = assay: Plasma free 8-iso-PGF2α by GC/NICI-MS; conditions: for Free 8-iso-PGF2a (by GC-MS): plasma
Experimental: as §1, §2, §3, §4, §5
Two slightly different methods developed in two different laboratories were used to measure the effect of CCl4 on the plasma levels of free 8-iso-PGF2α, and the sum of free plus esterified 8-iso-PGF2α (also known as 8-epi-PGF2α and iPF2α-III and 15-F2t-IsoP). Free 8-iso-PGF2α concentrations in plasma were determined by gas chromatography/negative ion chemical ionization mass spectrometry (GC/NICI-MS) by the method of Morrow et al. (1999, Methods Enzymol. 300: 3-12). Briefly, [2H4] 8-iso-PGF2α internal standard was added to plasma and F2-isoprostanes were extracted with a C18 Sep-Pak® Cartridge (Waters Associates, Milford, Mass.). The extracted F2-isoprostanes were converted to pentafluorobenzyl ester and purified by TLC after which they were converted to a trimethylsilyl ether derivative and subsequently analyzed by GC-MS. The assay was developed and performed at Vanderbilt University, Nashville, Tenn.

Male Fisher 344 rats [3] = assay: Urinary 8-OHdG by immunoassay; conditions: for 8-OHdG (by immunoassay): urine
Experimental: as §1, §4
Urine sample preparation: The day prior to treatment, both experimental and control animals were placed in stainless steel metabolic cages especially designed for urine collection. For Experimental Example 2, animals were placed in metabolic cages immediately after the last injection of indomethacin or meclofenamic acid. Urine was collected (in dark vials) from the animals during the following intervals: 2 to 7 hours and 7 to 16 hours after CCl4 or canola oil (controls) treatment. Urine samples from indomethacin-pretreated rats were collected from 2 to 7 hours and 7 to 16 hours after the injection of CCl4, whereas samples from meclofenamic-acid-pretreated rats were collected only from 2 to 7 hours after the injection. All urine samples were immediately frozen on dry ice and stored at −70° C.
8-Hydroxy-2′-deoxyguanosine (8-OHdG) was measured using an immunoassay. In brief, 8-OHdG was determined using a microtiter ELISA method where the test analyte competed with monoclonal antibody against 8-OHdG for 8-OHdG bound to the plate. After incubation and washing, an anti-mouse second antibody conjugated to horseradish peroxidase was used to determine the bound monoclonal antibody. The color yield is […] to the analyte concentration. Data reduction was by 4-parameter logistic curve fit. The assay was developed and measurements were performed by Oxis Research, Portland, Oreg.

Structure (SMILES): ClC(Cl)(Cl)Cl [CCl4, Carbon tetrachloride]
- Free plus esterified 8-iso-PGF2a (by GC-MS) (Male Fisher 344 rats [1]; CCl4 120 mg/kg i.p., 2 h): 3.07 ng/mL
- Free plus esterified 8-iso-PGF2a (by GC-MS) (Male Fisher 344 rats [1]; CCl4 120 mg/kg i.p., 7 h): 1.79 ng/mL
- Free plus esterified 8-iso-PGF2a (by GC-MS) (Male Fisher 344 rats [1]; CCl4 120 mg/kg i.p., 16 h): 0.93 ng/mL
- Free plus esterified 8-iso-PGF2a (by GC-MS) (Male Fisher 344 rats [1]; CCl4 1200 mg/kg i.p., 2 h): 6.63 ng/mL
- Free plus esterified 8-iso-PGF2a (by GC-MS) (Male Fisher 344 rats [1]; CCl4 1200 mg/kg i.p., 7 h): 4.39 ng/mL
- Free plus esterified 8-iso-PGF2a (by GC-MS) (Male Fisher 344 rats [1]; CCl4 1200 mg/kg i.p., 16 h): 1.68 ng/mL
- increase of free plus esterified plasma 8-iso-PGF2α (Male Fisher 344 rats [1]; high dose CCl4, 2 h): 15 fold
- increase of free plus esterified plasma 8-iso-PGF2α (Male Fisher 344 rats [1]; high dose CCl4, 7 h): 10 fold
- increase of free plus esterified plasma 8-iso-PGF2α (Male Fisher 344 rats [1]; high dose CCl4, 16 h): 4 fold
- Free 8-iso-PGF2a (by GC-MS) (Male Fisher 344 rats [2]; CCl4 120 mg/kg i.p., 2 h): 0.48 ng/mL
- Free 8-iso-PGF2a (by GC-MS) (Male Fisher 344 rats [2]; CCl4 120 mg/kg i.p., 7 h): 0.34 ng/mL
- Free 8-iso-PGF2a (by GC-MS) (Male Fisher 344 rats [2]; CCl4 120 mg/kg i.p., 16 h): 0.27 ng/mL
- Free 8-iso-PGF2a (by GC-MS) (Male Fisher 344 rats [2]; CCl4 1200 mg/kg i.p., 2 h): 1.80 ng/mL
- Free 8-iso-PGF2a (by GC-MS) (Male Fisher 344 rats [2]; CCl4 1200 mg/kg i.p., 7 h): 1.27 ng/mL
- Free 8-iso-PGF2a (by GC-MS) (Male Fisher 344 rats [2]; CCl4 1200 mg/kg i.p., 16 h): 0.74 ng/mL
- increase of free plasma 8-iso-PGF2α (Male Fisher 344 rats [2]; high dose CCl4, 2 hours): 18 fold
- increase of free plasma 8-iso-PGF2α (Male Fisher 344 rats [2]; high dose CCl4, 7 hours): 10 fold
- increase of free plasma 8-iso-PGF2α (Male Fisher 344 rats [2]; high dose CCl4, 16 hours): 7 fold
- 8-OHdG (by immunoassay) (Male Fisher 344 rats [3]; CCl4 120 mg/kg i.p., 7 h): 42 ng/mg creatinine
- 8-OHdG (by immunoassay) (Male Fisher 344 rats [3]; CCl4 120 mg/kg i.p., 16 h): 83 ng/mg creatinine
- 8-OHdG (by immunoassay) (Male Fisher 344 rats [3]; CCl4 1200 mg/kg i.p., 7 h): 165 ng/mg creatinine
- 8-OHdG (by immunoassay) (Male Fisher 344 rats [3]; CCl4 1200 mg/kg i.p., 16 h): 60 ng/mg creatinine
- increase of urinary 8-OHdG (Male Fisher 344 rats [3]; high dose CCl4, 7 h): 7 fold
- increase of urinary 8-OHdG (Male Fisher 344 rats [3]; high dose CCl4, 16 h): 3 fold
